Test results taken from US20260124214A1, “HETEROCYCLIC COMPOUNDS FOR USE IN THE TREATMENT OF CANCER” (ARTIOS PHARMA LIMITED, priority 2021, published 2026).
Counter-ions that a name gives are not always drawn.

Target: T1, Human Polθ polymerase domain (aa1820-2590) (Homo sapiens, UniProt O75417)
T1 construct: Human Polθ polymerase domain (aa1820-2590) was expressed in E. Coli; made in house; host or cells: E. coli
T1 sequence (O75417 1820-2590): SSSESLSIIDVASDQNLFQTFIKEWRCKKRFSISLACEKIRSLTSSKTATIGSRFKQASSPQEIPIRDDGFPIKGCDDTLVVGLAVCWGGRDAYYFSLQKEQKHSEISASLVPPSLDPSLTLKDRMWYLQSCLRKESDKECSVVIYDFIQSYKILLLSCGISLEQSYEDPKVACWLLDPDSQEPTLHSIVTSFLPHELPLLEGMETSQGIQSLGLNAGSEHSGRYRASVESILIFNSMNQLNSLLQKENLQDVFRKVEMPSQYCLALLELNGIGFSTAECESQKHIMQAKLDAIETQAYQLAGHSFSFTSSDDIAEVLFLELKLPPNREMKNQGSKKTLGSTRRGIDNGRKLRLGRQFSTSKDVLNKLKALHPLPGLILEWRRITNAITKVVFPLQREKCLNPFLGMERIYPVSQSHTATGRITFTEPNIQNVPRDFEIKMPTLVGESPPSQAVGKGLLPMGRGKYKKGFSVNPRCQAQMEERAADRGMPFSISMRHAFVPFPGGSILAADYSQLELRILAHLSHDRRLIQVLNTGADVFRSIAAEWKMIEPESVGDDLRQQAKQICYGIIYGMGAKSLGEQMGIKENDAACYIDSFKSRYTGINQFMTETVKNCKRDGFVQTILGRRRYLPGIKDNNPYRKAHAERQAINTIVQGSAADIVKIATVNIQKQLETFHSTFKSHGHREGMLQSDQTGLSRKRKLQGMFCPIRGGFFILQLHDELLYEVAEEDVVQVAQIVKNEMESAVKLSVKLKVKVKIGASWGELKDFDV
Experiment: Polθ Polymerase Domain WT KI Assay (PicoGreen)
Assay type: biochemical
Conditions: 100 nM DNA substrate, 0.156 nM Polθ, initial rates vs inhibitor concentration
Procedure, shortened: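 E. coli-expressed human Polθ polymerase domain (aa1820-2590) on annealed DNA II Short/Long primer-template (1.2:1), in 25 mM Tris pH 7.5, NaCl, 5% glycerol, 0.01% Triton X-100, 0.1 mg/ml BSA, 1 mM DTT, 1% DMSO. EDTA-quenched timepoints to 180 min, PicoGreen fluorescence. Initial rates vs inhibitor concentration fitted four-parameter for KI.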

Ki [nM] | SMILES
3.05 | Cc1cc(C(F)(F)F)cc(N2C(=O)C[C@@H]3CN(CCN4CCN5C(=O)COC[C@H]5C4)c4c(Cl)cccc4N(C)C(=O)[C@H]32)n1 [Example 43, (3aR,11aS)-6-Chloro-10-methyl-1-(6-methyl-4-(trifluoromethyl)pyridin-2-yl)-5-(2-((R)-4-oxohexahydropyrazino[2,1-c][1,4]oxazin-8(1H)-yl)ethyl)-1,3a,4,5,10,11a-hexahydro-2H-benzo[b]pyrrolo[2,3-f][1,4]diazocine-2,11(3H)-dione]
4.14 | Cc1cc(C(F)(F)F)cc(N2C(=O)C[C@@H]3CN(C[C@@H]4CN(C)CCO4)c4c(Cl)cccc4N(C)C(=O)[C@H]32)n1 (racemic) [Example 120b, (3aR,11aS)-6-Chloro-10-methyl-1-(6-methyl-4-(trifluoromethyl)pyridin-2-yl)-5-(((S/R)-4-methylmorpholin-2-yl)methyl)-1,3a,4,5,10,11a-hexahydro-2H-benzo[b]pyrrolo[2,3-f][1,4]diazocine-2,11(3H)-dione hydrochloride]
3.73 | Cc1cc(C(F)(F)F)cc(N2C(=O)C[C@@H]3CN(Cc4nnc5n4CCNC5)c4c(Cl)cccc4N(C)C(=O)[C@H]32)n1 [Example 101, (3aR,11aS)-6-Chloro-10-methyl-1-(6-methyl-4-(trifluoromethyl)pyridin-2-yl)-5-((5,6,7,8-tetrahydro-[1,2,4]triazolo[4,3-a]pyrazin-3-yl)methyl)-1,3a,4,5,10,11a-hexahydro-2H-benzo[b]pyrrolo[2,3-f][1,4]diazocine-2,11(3H)-dione hydrochloride]
1.23 | Cc1cc(C(F)(F)F)cc(N2C(=O)C[C@@H]3CN(CCN4CCN(CCO)CC4)c4c(C)cccc4N(C)C(=O)[C@H]32)n1 [Example 53, (3aR,11aS)-5-(2-(4-(2-Hydroxyethyl)piperazin-1-yl)ethyl)-6,10-dimethyl-1-(6-methyl-4-(trifluoromethyl)pyridin-2-yl)-1,3a,4,5,10,11a-hexahydro-2H-benzo[b]pyrrolo[2,3-f][1,4]diazocine-2,11(3H)-dione]
1.11 | Cc1cc(C(F)(F)F)cc(N2C(=O)C[C@@H]3CN(CC4CNCCO4)c4c(Cl)cccc4N(C)C(=O)[C@H]32)n1 (single isomer, unassigned) [Example 109a]
2.43 | CNCCNCCN1C[C@H]2CC(=O)N(c3cc(C(F)(F)F)cc(C)n3)[C@@H]2C(=O)N(C)c2cccc(C)c21 [Example 17, (3aR,11aS)-6,10-Dimethyl-1-(6-methyl-4-(trifluoromethyl)pyridin-2-yl)-5-(2-((2-(methylamino)ethyl)amino)ethyl)-1,3a,4,5,10,11a-hexahydro-2H-benzo[b]pyrrolo[2,3-f][1,4]diazocine-2,11(3H)-dione]
0.515 | Cc1cc(C(F)(F)F)cc(N2C(=O)C[C@@H]3CN(CCN4CCN(C)[C@@H](C)C4)c4c(C)cccc4N(C)C(=O)[C@H]32)n1 [Example 46, (3aR,11aS)-5-(2-((S)-3,4-Dimethylpiperazin-1-yl)ethyl)-6,10-dimethyl-1-(6-methyl-4-(trifluoromethyl)pyridin-2-yl)-1,3a,4,5,10,11a-hexahydro-2H-benzo[b]pyrrolo[2,3-f][1,4]diazocine-2,11(3H)-dione dihydrochloride]
1.81 | Cc1cc(C(F)(F)F)cc(N2C(=O)C[C@@H]3CN(C[C@H]4COCCN4)c4c(C)cccc4N(C)C(=O)[C@H]32)n1 (racemic) [Example 112b, (3aR,11aS)-6,10-Dimethyl-1-(6-methyl-4-(trifluoromethyl)pyridin-2-yl)-5-(((S/R)-morpholin-3-yl)methyl)-1,3a,4,5,10,11a-hexahydro-2H-benzo[b]pyrrolo[2,3-f][1,4]diazocine-2,11(3H)-dione]
1.3 | Cc1cc(C(F)(F)F)cc(N2C(=O)C[C@@H]3CN(CC4CCN(CCF)CC4)c4c(Cl)cccc4N(C)C(=O)[C@H]32)n1 [Example 86, (3aR,11aS)-6-Chloro-5-((1-(2-fluoroethyl)piperidin-4-yl)methyl)-10-methyl-1-(6-methyl-4-(trifluoromethyl)pyridin-2-yl)-1,3a,4,5,10,11a-hexahydro-2H-benzo[b]pyrrolo[2,3-f][1,4]diazocine-2,11(3H)-dione]
2.08 | Cc1cc(C(F)(F)F)cc(N2C(=O)C[C@@H]3CN(CC4CCCNC4)c4c(Cl)cccc4N(C)C(=O)[C@H]32)n1 (stereo partly drawn) [Example 110, (3aR,11aS)-6-Chloro-10-methyl-1-(6-methyl-4-(trifluoromethyl)pyridin-2-yl)-5-(piperidin-3-ylmethyl)-1,3a,4,5,10,11a-hexahydro-2H-benzo[b]pyrrolo[2,3-f][1,4]diazocine-2,11(3H)-dione]
0.957 | Cc1cc(C(F)(F)F)cc(N2C(=O)C[C@@H]3CN(CCN4CCN(C(=O)[C@H](C)O)CC4)c4c(C)cccc4N(C)C(=O)[C@H]32)n1 [Example 52, (3aR,11aS)-5-(2-(4-((S)-2-Hydroxypropanoyl)piperazin-1-yl)ethyl)-6,10-dimethyl-1-(6-methyl-4-(trifluoromethyl)pyridin-2-yl)-1,3a,4,5,10,11a-hexahydro-2H-benzo[b]pyrrolo[2,3-f][1,4]diazocine-2,11(3H)-dione hydrochloride]
2.2 | Cc1cc(C(F)(F)F)cc(N2C(=O)C[C@@H]3CN(Cc4ccc5c(c4)CN(C)C5)c4c(F)cccc4N(C)C(=O)[C@H]32)n1 [Example 123, (3aR,11aS)-6-Fluoro-10-methyl-1-(6-methyl-4-(trifluoromethyl)pyridin-2-yl)-5-((2-methylisoindolin-5-yl)methyl)-1,3a,4,5,10,11a-hexahydro-2H-benzo[b]pyrrolo[2,3-f][1,4]diazocine-2,11(3H)-dione hydrochloride]
1.39 | Cc1cc(C(F)(F)F)cc(N2C(=O)C[C@@H]3CN(CC4CN(C)CCO4)c4c(Cl)cccc4N(C)C(=O)[C@H]32)n1 (single isomer, unassigned) [Example 120a, hydrochloride]
14.7 | Cc1cc(C(F)(F)F)cc(N2C(=O)C[C@@H]3CN(C4CC(OCc5ccccc5)C4)c4c(F)cccc4N(C)C(=O)[C@H]32)n1 (single isomer, unassigned) [Example 92b]
51.1 | Cc1cc(C(F)(F)F)cc(N2C(=O)C[C@@H]3CN(CCN4CCN(C)CC4)c4ccccc4N(C)C(=O)[C@H]32)n1 [Example 13, (3aR,11aS)-10-Methyl-1-(6-methyl-4-(trifluoromethyl)pyridin-2-yl)-5-(2-(4-methylpiperazin-1-yl)ethyl)-1,3a,4,5,10,11a-hexahydro-2H-benzo[b]pyrrolo[2,3-f][1,4]diazocine-2,11(3H)-dione dihydrochloride]
1.42 | Cc1cc(C(F)(F)F)cc(N2C(=O)C[C@@H]3CN(CCN4CC5(COC5)C4)c4c(Cl)cccc4N(C)C(=O)[C@H]32)n1 [Example 29, (3aR,11aS)-5-(2-(2-Oxa-6-azaspiro[3.3]heptan-6-yl)ethyl)-6-chloro-10-methyl-1-(6-methyl-4-(trifluoromethyl)pyridin-2-yl)-1,3a,4,5,10,11a-hexahydro-2H-benzo[b]pyrrolo[2,3-f][1,4]diazocine-2,11(3H)-dione]
2.72 | Cc1cc(C(F)(F)F)cc(N2C(=O)C[C@@H]3CN(CCN4CCN(CCF)CC4)c4c(Cl)cccc4N(C)C(=O)[C@H]32)n1 [Example 26, (3aR,11aS)-6-Chloro-5-(2-(4-(2-fluoroethyl)piperazin-1-yl)ethyl)-10-methyl-1-(6-methyl-4-(trifluoromethyl)pyridin-2-yl)-1,3a,4,5,10,11a-hexahydro-2H-benzo[b]pyrrolo[2,3-f][1,4]diazocine-2,11(3H)-dione]
1.81 | Cc1cc(C(F)(F)F)cc(N2C(=O)C[C@@H]3CN(CCN4CCN5C(=O)COC[C@H]5C4)c4c(C)cccc4N(C)C(=O)[C@H]32)n1 [Example 75, (3aR,11aS)-6,10-Dimethyl-1-(6-methyl-4-(trifluoromethyl)pyridin-2-yl)-5-(2-((R)-4-oxohexahydropyrazino[2,1-c][1,4]oxazin-8(1H)-yl)ethyl)-1,3a,4,5,10,11a-hexahydro-2H-benzo[b]pyrrolo[2,3-f][1,4]diazocine-2,11(3H)-dione]
0.619 | Cc1cc(C(F)(F)F)cc(N2C(=O)C[C@@H]3CN(CC[C@H]4CCNC4)c4c(Cl)cccc4N(C)C(=O)[C@H]32)n1 [Example 111, (3aR,11aS)-6-Chloro-10-methyl-1-(6-methyl-4-(trifluoromethyl)pyridin-2-yl)-5-(2-((R)-pyrrolidin-3-yl)ethyl)-1,3a,4,5,10,11a-hexahydro-2H-benzo[b]pyrrolo[2,3-f][1,4]diazocine-2,11(3H)-dione hydrochloride]
